Our source for the IC50 values is patent publication US10040781B2, “Tank-binding kinase inhibitor compounds” (Gilead Sciences, Inc., priority 2014, dated 2018).

Bounds are passed on as bounds.

The target in one assay is IKKε (Homo sapiens (Human), UniProt Q14164). Description: IKKε TR-FRET enzymatic assay. Type of assay: biochemical. The following applies: TR-FRET, 2×Km ATP; geometric mean of minimum four determinations; read-out: IKKe IC50. On the technique in general: TR-FRET usually uses a lanthanide donor and a delayed reading to cut background.
For a further assay, the target named is hJAK2 (Homo sapiens (Human), UniProt O60674). Description: hJAK2 LANCE TR-FRET enzymatic assay. The following applies: read-out: JAK2 IC50. Type of assay: biochemical.
The target in the next assay is TBK1 (Homo sapiens (Human), UniProt Q9UHD2). Description: TBK1 TR-FRET enzymatic assay.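 Note: phosphorylation of a biotinylated Ser/Thr peptide by purified full-length recombinant TBK1, read by TR-FRET after 240 min at 25 °C, IC50 is the geometric mean of at least four runs.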
Chain of TBK1 (Q9UHD2 whole entry): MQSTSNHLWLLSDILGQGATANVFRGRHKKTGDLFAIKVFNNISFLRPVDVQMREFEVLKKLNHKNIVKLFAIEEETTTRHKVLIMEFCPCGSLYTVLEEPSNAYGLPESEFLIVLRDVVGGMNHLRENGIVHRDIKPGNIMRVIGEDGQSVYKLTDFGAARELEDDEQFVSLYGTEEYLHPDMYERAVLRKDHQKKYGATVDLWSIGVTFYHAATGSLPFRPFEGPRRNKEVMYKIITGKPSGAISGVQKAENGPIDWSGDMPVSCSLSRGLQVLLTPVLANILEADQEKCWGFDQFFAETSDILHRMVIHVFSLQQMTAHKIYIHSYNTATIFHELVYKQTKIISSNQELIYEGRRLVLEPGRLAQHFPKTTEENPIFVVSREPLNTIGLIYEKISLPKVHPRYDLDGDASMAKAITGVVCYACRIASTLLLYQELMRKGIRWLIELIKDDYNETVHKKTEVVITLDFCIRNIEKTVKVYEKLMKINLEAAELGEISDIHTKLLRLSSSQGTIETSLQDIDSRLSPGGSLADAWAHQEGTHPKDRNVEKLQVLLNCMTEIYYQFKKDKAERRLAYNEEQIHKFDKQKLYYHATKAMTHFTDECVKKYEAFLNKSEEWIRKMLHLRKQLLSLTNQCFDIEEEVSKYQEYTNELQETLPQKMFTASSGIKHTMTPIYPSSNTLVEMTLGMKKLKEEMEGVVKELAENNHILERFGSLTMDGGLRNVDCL

Chain of hJAK2 (O60674 whole entry): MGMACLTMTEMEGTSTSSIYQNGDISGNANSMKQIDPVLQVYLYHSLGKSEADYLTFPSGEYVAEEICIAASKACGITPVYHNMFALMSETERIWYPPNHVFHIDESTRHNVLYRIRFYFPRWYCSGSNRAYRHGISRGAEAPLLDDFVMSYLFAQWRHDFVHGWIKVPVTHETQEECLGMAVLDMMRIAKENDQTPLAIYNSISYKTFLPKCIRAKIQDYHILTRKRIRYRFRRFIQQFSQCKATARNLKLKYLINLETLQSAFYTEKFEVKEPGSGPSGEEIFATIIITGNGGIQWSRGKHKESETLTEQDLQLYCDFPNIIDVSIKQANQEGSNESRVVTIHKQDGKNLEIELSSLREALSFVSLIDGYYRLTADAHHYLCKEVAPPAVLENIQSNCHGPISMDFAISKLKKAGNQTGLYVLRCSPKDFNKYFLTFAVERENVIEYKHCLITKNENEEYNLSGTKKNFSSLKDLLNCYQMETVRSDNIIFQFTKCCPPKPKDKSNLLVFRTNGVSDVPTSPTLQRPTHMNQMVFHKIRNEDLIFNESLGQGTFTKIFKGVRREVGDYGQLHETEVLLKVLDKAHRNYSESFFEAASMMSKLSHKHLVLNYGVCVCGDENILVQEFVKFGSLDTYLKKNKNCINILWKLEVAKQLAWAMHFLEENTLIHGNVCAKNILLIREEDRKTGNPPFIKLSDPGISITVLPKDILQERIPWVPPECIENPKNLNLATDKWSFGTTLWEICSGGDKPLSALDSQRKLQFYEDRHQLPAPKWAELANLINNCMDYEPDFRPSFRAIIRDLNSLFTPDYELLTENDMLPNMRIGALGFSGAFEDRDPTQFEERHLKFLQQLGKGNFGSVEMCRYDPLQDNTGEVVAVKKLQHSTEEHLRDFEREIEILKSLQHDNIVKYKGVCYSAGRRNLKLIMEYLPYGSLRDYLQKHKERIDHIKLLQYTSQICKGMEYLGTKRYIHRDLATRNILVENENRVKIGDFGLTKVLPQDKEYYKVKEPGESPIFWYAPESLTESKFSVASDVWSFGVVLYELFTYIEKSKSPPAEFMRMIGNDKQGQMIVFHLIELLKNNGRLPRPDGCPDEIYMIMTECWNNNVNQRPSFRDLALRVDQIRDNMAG
Chain of IKKε (Q14164 whole entry): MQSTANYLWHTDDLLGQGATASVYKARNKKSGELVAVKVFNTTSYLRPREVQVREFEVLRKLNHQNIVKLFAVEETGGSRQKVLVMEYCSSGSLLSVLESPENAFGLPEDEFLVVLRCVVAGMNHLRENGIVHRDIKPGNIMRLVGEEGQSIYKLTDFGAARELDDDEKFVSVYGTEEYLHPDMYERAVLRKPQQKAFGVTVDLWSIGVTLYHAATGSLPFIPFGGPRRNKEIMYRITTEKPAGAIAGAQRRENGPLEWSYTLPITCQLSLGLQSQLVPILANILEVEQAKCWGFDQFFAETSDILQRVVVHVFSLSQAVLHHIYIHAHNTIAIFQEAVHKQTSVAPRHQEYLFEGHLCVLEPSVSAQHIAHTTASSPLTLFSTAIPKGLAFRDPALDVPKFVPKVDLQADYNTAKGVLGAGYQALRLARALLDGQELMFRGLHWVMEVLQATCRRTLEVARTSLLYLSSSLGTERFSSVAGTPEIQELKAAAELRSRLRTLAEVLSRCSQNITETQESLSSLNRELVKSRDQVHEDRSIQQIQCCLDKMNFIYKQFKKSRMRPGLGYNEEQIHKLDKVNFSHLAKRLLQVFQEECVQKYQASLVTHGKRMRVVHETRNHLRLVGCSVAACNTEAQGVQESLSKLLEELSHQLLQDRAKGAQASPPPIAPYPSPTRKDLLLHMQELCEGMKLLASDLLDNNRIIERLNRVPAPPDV

As usually defined, the IC50 is the point on the concentration scale where inhibition reaches its midpoint. `N#Cc1cc(-c2ncnc(Nc3ccc(N4CCN(C5COC5)CC4)cc3)n2)ccc1O[C@@H]1CCN(C(=O)c2nc(=O)[nH][nH]2)C1` [Example 435, (R)-5-(4-((4-(4-(oxetan-3-yl)piperazin-1-yl)phenyl)amino)-1,3,5-triazin-2-yl)-2-((1-(5-oxo-2,5-dihydro-1H-1,2,4-triazole-3-carbonyl)pyrrolidin-3-yl)oxy)benzonitrile]: the half-maximal inhibitory concentration (IC50) was 292 nM at IKKε, at least 1000 nM at hJAK2 and 411 nM against TBK1.
Take `CC1(C)CNC[C@@H](F)[C@H]1Oc1ccc(-c2ncnc(Nc3ccc(N4CCN(C5COC5)CC4)cc3)n2)cc1C#N` [Example 440, 2-(((4S,5R)-5-fluoro-3,3-dimethylpiperidin-4-yl)oxy)-5-(4-((4-(4-(oxetan-3-yl)piperazin-1-yl)phenyl)amino)-1,3,5-triazin-2-yl)benzonitrile]: the 50% inhibitory concentration (IC50) at IKKε worked out at 51 nM; at hJAK2, 110 nM; against TBK1, 22 nM.
For `Cn1cc(C(=O)N2C[C@@H](F)[C@@H](Oc3ccc(-c4ncnc(Nc5ccc(N6CCN(C7COC7)CC6)cc5)n4)cc3C#N)C(C)(C)C2)nn1` [Example 441, 2-(((4S,5R)-5-fluoro-3,3-dimethyl-1-(1-methyl-1H-1,2,3-triazole-4-carbonyl)piperidin-4-yl)oxy)-5-(4-((4-(4-(oxetan-3-yl)piperazin-1-yl)phenyl)amino)-1,3,5-triazin-2-yl)benzonitrile], in that order: 2 nM, 88 nM and 3 nM.
As for `CC1(C)CN(C(=O)c2ccn[nH]2)C[C@@H](F)[C@H]1Oc1ccc(-c2ncnc(Nc3ccc(N4CCN(C5COC5)CC4)cc3)n2)cc1C#N` [Example 442, 2-(((4S,5R)-5-fluoro-3,3-dimethyl-1-(1H-pyrazole-5-carbonyl)piperidin-4-yl)oxy)-5-(4-((4-(4-(oxetan-3-yl)piperazin-1-yl)phenyl)amino)-1,3,5-triazin-2-yl)benzonitrile], the IC50 at IKKε worked out at 3 nM; at hJAK2, 125 nM; against TBK1, 3 nM.
On to `CC1(C)CN(C(=O)CCO)C[C@@H](F)[C@H]1Oc1ccc(-c2ncnc(Nc3ccc(N4CCN(C5COC5)CC4)cc3)n2)cc1C#N` [Example 443, 2-(((4S,5R)-5-fluoro-1-(3-hydroxypropanoyl)-3,3-dimethylpiperidin-4-yl)oxy)-5-(4-((4-(4-(oxetan-3-yl)piperazin-1-yl)phenyl)amino)-1,3,5-triazin-2-yl)benzonitrile], for which the IC50 amounted to 6 nM on IKKε, 102 nM on hJAK2 and 3 nM against TBK1.
As for `CC1(C)CN(C(=O)[C@@H]2CCC(=O)N2)C[C@H](F)[C@@H]1Oc1ccc(-c2ncnc(Nc3ccc(N4CCN(C5COC5)CC4)cc3)n2)cc1C#N` [Example 444], the IC50 on IKKε was 88 nM; on hJAK2, 476 nM; on TBK1, 27 nM.
The like results for `CC1(C)CN(C(=O)[C@@H]2CCC(=O)N2)C[C@@H](F)[C@H]1Oc1ccc(-c2ncnc(Nc3ccc(N4CCN(C5COC5)CC4)cc3)n2)cc1C#N` [Example 445, 2-(((4S,5R)-5-fluoro-3,3-dimethyl-1-((S)-5-oxopyrrolidine-2-carbonyl)piperidin-4-yl)oxy)-5-(4-((4-(4-(oxetan-3-yl)piperazin-1-yl)phenyl)amino)-1,3,5-triazin-2-yl)benzonitrile] were, in that order, 5 nM, 90 nM and 5 nM.
As for `N#Cc1cc(-c2ncnc(Nc3ccc(N4CCN(C5COC5)CC4)cc3)n2)ccc1OC1CNC(=O)C(F)(F)C1` (stereo not drawn) [Example 446, 2-((5,5-difluoro-6-oxopiperidin-3-yl)oxy)-5-(4-((4-(4-(oxetan-3-yl)piperazin-1-yl)phenyl)amino)-1,3,5-triazin-2-yl)benzonitrile], the values for the half-maximal inhibitory concentration (IC50) on IKKε, on hJAK2 and at TBK1 were 33 nM, 153 nM and 48 nM, respectively.
For `NC(=O)c1cc(-c2ncnc(Nc3ccc(N4CCN(C5COC5)CC4)cc3)n2)ccc1OC1CNC(=O)C(F)(F)C1` (stereo not drawn) [Example 447, 2-((5,5-difluoro-6-oxopiperidin-3-yl)oxy)-5-(4-((4-(4-(oxetan-3-yl)piperazin-1-yl)phenyl)amino)-1,3,5-triazin-2-yl)benzamide], in that order: 197 nM, 15 nM and 65 nM.
The like results for `N#Cc1cc(-c2ncnc(Nc3ccc(N4CCN(C5COC5)CC4)cc3)n2)ccc1O[C@H]1CCN(C(=O)c2ccnn2CCO)C[C@H]1F` [Example 448, 2-(((3R,4S)-3-fluoro-1-(1-(2-hydroxyethyl)-1H-pyrazole-5-carbonyl)piperidin-4-yl)oxy)-5-(4-((4-(4-(oxetan-3-yl)piperazin-1-yl)phenyl)amino)-1,3,5-triazin-2-yl)benzonitrile] were, in that order, 84 nM, 213 nM and 54 nM.
`CC1(C)CN(C(=O)CC#N)C[C@H](F)[C@@H]1Oc1ccc(-c2ncnc(Nc3ccc(N4CCN(C5COC5)CC4)cc3)n2)cc1C#N` [Example 449, 2-(((4R,5S)-1-(2-cyanoacetyl)-5-fluoro-3,3-dimethylpiperidin-4-yl)oxy)-5-(4-((4-(4-(oxetan-3-yl)piperazin-1-yl)phenyl)amino)-1,3,5-triazin-2-yl)benzonitrile]: the 50% inhibitory concentration (IC50) on IKKε was determined as 59 nM; at hJAK2 it was 443 nM; against TBK1, 35 nM.
The like results for `CC1(C)CN(C(=O)CC#N)C[C@@H](F)[C@H]1Oc1ccc(-c2ncnc(Nc3ccc(N4CCN(C5COC5)CC4)cc3)n2)cc1C#N` [Example 450, 2-(((4S,5R)-1-(2-cyanoacetyl)-5-fluoro-3,3-dimethylpiperidin-4-yl)oxy)-5-(4-((4-(4-(oxetan-3-yl)piperazin-1-yl)phenyl)amino)-1,3,5-triazin-2-yl)benzonitrile] were, in that order, 3 nM, 48 nM and 3 nM.
For `Cc1n[nH]c(C(=O)N2CC[C@H](Oc3ccc(-c4ncnc(Nc5ccc(N6CCN(C7COC7)CC6)cc5)n4)cc3C#N)C(F)(F)C2)n1` [Example 452, (S)-2-((3,3-difluoro-1-(3-methyl-1H-1,2,4-triazole-5-carbonyl)piperidin-4-yl)oxy)-5-(4-((4-(4-(oxetan-3-yl)piperazin-1-yl)phenyl)amino)-1,3,5-triazin-2-yl)benzonitrile], in that order: 1 nM, 23 nM and 3 nM.
For `N#Cc1cc(-c2ncnc(Nc3cnn(C(F)F)c3)n2)ccc1O[C@H]1CCNC[C@H]1F` [Example 453, 5-(4-((1-(difluoromethyl)-1H-pyrazol-4-yl)amino)-1,3,5-triazin-2-yl)-2-(((3R,4S)-3-fluoropiperidin-4-yl)oxy)benzonitrile], in that order: 577 nM, at least 1000 nM and 39 nM.
In the case of `CC(C)(C)n1cc(Nc2ncnc(-c3ccc(O[C@H]4CCN(C(=O)CCO)C[C@H]4F)c(C#N)c3)n2)cn1` [Example 458, 5-(4-((1-(tert-butyl)-1H-pyrazol-4-yl)amino)-1,3,5-triazin-2-yl)-2-(((3R,4S)-3-fluoro-1-(3-hydroxypropanoyl)piperidin-4-yl)oxy)benzonitrile], the IC50 on IKKε amounted to 61 nM; on hJAK2, 223 nM; against TBK1, 23 nM.
`CC(C)(C)n1cc(Nc2ncnc(-c3ccc(O[C@H]4CCN(C(=O)CC#N)C[C@H]4F)c(C#N)c3)n2)cn1` [Example 459, 5-(4-((1-(tert-butyl)-1H-pyrazol-4-yl)amino)-1,3,5-triazin-2-yl)-2-(((3R,4S)-1-(2-cyanoacetyl)-3-fluoropiperidin-4-yl)oxy)benzonitrile]: the 50% inhibitory concentration (IC50) amounted to 22 nM on IKKε, 108 nM on hJAK2 and 11 nM at TBK1.
The like results for `C[C@H](O)C(=O)N1CC[C@H](Oc2ccc(-c3ncnc(Nc4ccc(N5CCO[C@@H](CO)C5)cc4)n3)cc2C#N)C(F)(F)C1` [Example 460, 2-(((S)-3,3-difluoro-1-((S)-2-hydroxypropanoyl)piperidin-4-yl)oxy)-5-(4-((4-((R)-2-(hydroxymethyl)morpholino)phenyl)amino)-1,3,5-triazin-2-yl)benzonitrile] were, in that order, 1 nM, 131 nM and 2 nM.
The like results for `CC(C)[C@H](O)C(=O)N1CC[C@H](Oc2ccc(-c3ncnc(Nc4ccc(N5CCN(C6COC6)CC5)cc4)n3)cc2C#N)[C@H](F)C1` [Example 461, 2-(((3R,4S)-3-fluoro-1-((S)-2-hydroxy-3-methylbutanoyl)piperidin-4-yl)oxy)-5-(4-((4-(4-(oxetan-3-yl)piperazin-1-yl)phenyl)amino)-1,3,5-triazin-2-yl)benzonitrile] were, in that order, 63 nM, 930 nM and 16 nM.
For `C[C@H](O)C(=O)N1CC[C@H](Oc2ccc(-c3ncnc(Nc4ccc(N5CCN(C6COC6)CC5=O)cc4)n3)cc2C#N)[C@H](F)C1` [Example 462, 2-(((3R,4S)-3-fluoro-1-((S)-2-hydroxypropanoyl)piperidin-4-yl)oxy)-5-(4-((4-(4-(oxetan-3-yl)-2-oxopiperazin-1-yl)phenyl)amino)-1,3,5-triazin-2-yl)benzonitrile], in that order: 4 nM, at least 1000 nM and 3 nM.
Take `Cn1cc(C(O)C(=O)N2CC[C@H](Oc3ccc(-c4ncnc(Nc5ccc(N6CCN(C7COC7)CC6)cc5)n4)cc3C#N)[C@H](F)C2)cn1` (stereo partly drawn) [Example 463, 2-(((3R,4S)-3-fluoro-1-(2-hydroxy-2-(1-methyl-1H-pyrazol-4-yl)acetyl)piperidin-4-yl)oxy)-5-(4-((4-(4-(oxetan-3-yl)piperazin-1-yl)phenyl)amino)-1,3,5-triazin-2-yl)benzonitrile]: the half-inhibitory concentration (IC50) at IKKε turned out to be 68 nM; on hJAK2 it was 272 nM; at TBK1 it was 30 nM.
